Data: patent US9738636B2, “Fused heterocyclic compounds as selective BMP inhibitors” (Vanderbilt University, priority 2012, dated 2017)

System: BMP4
Assay: BMP4 cell assay (BMP reporter)
Assay type: cell-based
Conditions: series of scaffold drawing 183 (R, R1)

IC50: 6.1 µM
Compound: c1cc(-c2cnc3cc(-c4ccc5c(c4)OCCO5)ccn23)ccn1 [Example 6, 7-(2,3-dihydrobenzo[b][1,4]dioxin-6-yl)-3-(pyridin-4-yl)imidazo[1,2-a]pyridine]
